Assay results published in US4354039A, “Chlorocitric acids” (Hoffmann-La Roche Inc., priority 1981, dated 1982).
Read-outs that look alike come from different tables or passages of the source.

What was measured:
[1] = Effect of stereoisomers on food consumption of meal-fed rats (Example 14); format: in vivo, Charles River female rats
Method: Animals were fasted 48 hr, then meal-fed the 70% glucose diet described by A. C. […] Following 5 to 12 days alimentation on the meal-feeding regimen, rats were dosed with the appropriate compounds orally by intubation 1/2 hr before the 3 hr meal. Food cups were weighed immediately after the meal. The control group consisted of 5 to 10 rats, while the experimental group consisted of 4 to 6 rats.

[2] = Anorectic activities of stereoisomers, 3-day food consumption and body weight gain (Example 16); format: in vivo, Charles River female rats; conditions: 1.32 mmoles/kg oral, 3 days
Method: Charles River female rats (Charles River Breeding Laboratories, Wilmington, Mass.), weighing 196 to 210 g, were individually housed in wire-bottomed cages in a temperature-regulated (22° C.) light-controlled room (12 hr light, 6 a.m. to 6 p.m. and 12 hr dark, 6 p.m. to 6 a.m.). Animals were fasted 48 hr, then meal-fed a 70% glucose diet from 8 to 11 a.m. Following 5 to 12 days alimentation on the meal-feeding regimen, rats were dosed with the appropriate compounds orally by intubation 1/2 hr before the 3 hr meal for 3 days. The total food consumption and body weight gained during the 3 day period were determined. The control group consisted of 16 rats, while the experimental group consists of 8 rats.

[3] = Effect on stomach emptying, [14C] glucose load (Example 25); format: in vivo, Rats; conditions: 0.33 mmoles/kg oral, 60 min after [14C] glucose load
Method: Rats were trained to consume a 3 hr 70% glucose meal from 8 a.m. to 11 a.m. daily. On the experimental day, compounds were administered orally by intubation 30 min before a [^14 C] glucose load was given also by intubation. […] Sixty minutes later the rats were killed by decapitation; blood and stomachs were collected on ice.
Data are expressed as follows: dpm×10^3 per ml of serum and dpm×10^3 per stomach.

[4] = Anorectic effect in 8 hour meal-fed Zucker rats (Example 17); format: in vivo, lean (Fa/-) and obese (fa/fa)
Method: Lean (Fa/-) Zucker rats and obese (fa/fa) Zucker rats of both sexes were individually housed in wire-bottomed cages in a temperature-regulated (22° C.) light-controlled room (12 hr light, 6 a.m. to 6 p.m. and 12 hr dark, 6 p.m. to 6 a.m.). The animals were fed a high carbohydrate (70% glucose) diet ad libitum for 13 days, dosed with the indicated compounds by oral intubation for 9 days and allowed to recover for 3 days. The animals were then meal fed from 8 a.m. to 4 p.m. for a period of 5 days, following which they were continued on the same meal schedule for an additional 6 days. During the 6-day period, the animals were administered the indicated compounds by oral intubation at 8 a.m. and 12 p.m. Food cups were weighed immediately after the meal.

[5] = Comparative anorectic activity, food consumption of meal-fed rats (Example 13); format: in vivo, Charles River female rats; conditions: 3 hr meal
Method: Charles River female rats (Charles River Breeding Laboratories, Wilmington, Mass.), weighing 150 to 175 g, were individually housed in wire-bottomed cages in a temperature-regulated (22° C.) light-controlled room (12 hr light, 6 a.m. to 6 p.m. and 12 hr dark, 6 p.m. to 6 a.m.). Animals were fasted 48 hr, then meal-fed the 70% glucose diet described by A. C. Sullivan, et al., J. Nutrition, 101, 265 (1971) from 8 to 11 a.m. Following 5 to 13 days alimentation on the meal-feeding regimen, rats were dosed with the appropriate compounds orally by intubation 1/2 hr before the 3 hr meal. Food cups were weighed immediately after the meal. The control group consists of 31 rats while each drug treated group consists of 5 to 12 rats.
The G-70 diet consisted of 70% glucose, 23% vitamin-free casein, 5% Phillips and Hart salt mixture IV, 1% corn oil, 1% complete vitamin mixture, and 40 g/kg cellulose. To ensure complete uniformity, all diets were mixed with a twen-shell dry blender equipped with an itensifier bar (Patterson-Kelley Co., East Stroudsburg, Pa.).

[6] = test system: isolated rat hepatocytes; test: Fatty acid and cholesterol synthesis and CO2 production in isolated hepatocytes (Example 23); format: cell-based, Female Charles River rats; conditions: Rattus norvegicus, Hepatocyte, 1 h, 2 mM, 60 min, 37° C.
Method: Female Charles River rats were fasted 48 hr, then meal-fed a 1% corn oil, 70% glucose diet for 7 to 14 days from 8 to 11 a.m. The isolated rat hepatocytes were prepared by perfusing the liver in situ. The hepatocytes were incubated in an oscillating water bath at 37° C. for 60 min. […] All incubations were done in triplicate and all experiments were repeated at least twice. […] The contents of the center well were transferred to scintillation counting fluid and ^14 CO2 content was determined. […] The media was then acidified, extracted with hexane, and the extract counted (to determine the rate of lipogenesis). The conversion of ^3 H2 O and [^14 C]alanine into fatty acids or sterols was determined in a PDS/3, Mark II liquid scintillation counting system.

Which results are given for `O=C(O)C[C@](O)(C(=O)O)[C@@H](Cl)C(=O)O` [(-)-erythro-Chlorocitric acid]?
Food Consumption, % of control ([1]; 0.66 mmoles/kg oral): 85 % of control; Food Consumption, % of control ([1]; 2.63 mmoles/kg oral): 53 % of control; 3-Day Body Weight Gain, % of initial body weight [2]: -2.4 % of initial body weight; 3-Day Food Consumption, % of control [2]: 86 % of control; Serum, % of control [3]: 90 % of control; Stomach Contents, % of control [3]: 169 % of control

Which “Food Consumption, % of control” value ([1]; 2.63 mmoles/kg oral) does the source give for `O=C(O)CC(O)(CC(=O)O)C(=O)O` [Citric Acid] here?
Its value is 94 % of control.

And the “Daily Food Consumption” value ([4]; Fa/-- lean, 1.32 mmoles/kg group, pretreatment day 0)?
Its value is 11.0 ± 0.8 g.

And the “Daily Food Consumption” value ([4]; Fa/-- lean, 1.32 mmoles/kg oral, day 1)?
Its value is 10.6 ± 1.2 g.

And the “Daily Food Consumption” value ([4]; Fa/-- lean, 1.32 mmoles/kg oral, day 2)?
The value was 10.0 ± 1.2 g.

What about the “Daily Food Consumption” value ([4]; Fa/-- lean, 1.32 mmoles/kg oral, day 3) of the same compound?
The value was 12.7 ± 1.0 g.

What about the “Daily Food Consumption” value ([4]; Fa/-- lean, 1.32 mmoles/kg oral, day 4) of the same compound?
Its value is 11.9 ± 0.7 g.

What about the “Daily Food Consumption” value ([4]; Fa/-- lean, 1.32 mmoles/kg oral, day 5) of the same compound?
The value was 12.6 g.

And the “Daily Food Consumption” value ([4]; Fa/-- lean, 1.32 mmoles/kg oral, day 6)?
The value was 13.1 ± 0.9 g.

And the “Daily Food Consumption” value ([4]; fa/fa obese, 1.32 mmoles/kg group, pretreatment day 0)?
Its value is 13.4 ± 0.8 g.

And the “Daily Food Consumption” value ([4]; fa/fa obese, 1.32 mmoles/kg oral, day 1)?
The value was 11.4 ± 0.8 g.

And the “Daily Food Consumption” value ([4]; fa/fa obese, 1.32 mmoles/kg oral, day 2)?
Its value is 13.8 ± 1.2 g.

And the “Daily Food Consumption” value ([4]; fa/fa obese, 1.32 mmoles/kg oral, day 3)?
Its value is 16.5 ± 1.0 g.

What about the “Daily Food Consumption” value ([4]; fa/fa obese, 1.32 mmoles/kg oral, day 4) of the same compound?
Its value is 14.8 ± 0.9 g.

And the “Daily Food Consumption” value ([4]; fa/fa obese, 1.32 mmoles/kg oral, day 6)?
Its value is 16.0 ± 1.0 g.

For `O=C(O)C[C@@](O)(C(=O)O)[C@H](O)C(=O)O` [Trisodium (-)-threo-hydroxycitrate, reference compound], which “Food Consumption, % of control” value ([5]; 0.33 mmoles/kg oral) is on record?
The value was 103 % of control.

What about the “Food Consumption, % of control” value ([5]; 0.66 mmoles/kg oral) of the same compound?
The value was 80 % of control.

What about the “Food Consumption, % of control” value ([5]; 1.32 mmoles/kg oral) of the same compound?
Its value is 88 % of control.

And the “Food Consumption, % of control” value ([5]; 2.63 mmoles/kg oral)?
The value was 79 % of control.

And the activity at 2000 µM ([6]; read-out: CO2 Production, [14C]alanine converted)?
The activity at 2000 µM was 103%.

And the activity at 2000 µM ([6]; read-out: Cholesterol Synthesis, 3H2O converted)?
The activity at 2000 µM was 60%.

What about the activity at 2000 µM ([6]; read-out: Cholesterol Synthesis, [14C]alanine converted) of the same compound?
Its activity at 2000 µM is 18%.

And the activity at 2000 µM ([6]; read-out: Fatty Acid Synthesis, 3H2O converted)?
The activity at 2000 µM was 54%.

And the activity at 2000 µM ([6]; read-out: Fatty Acid Synthesis, [14C]alanine converted)?
The activity at 2000 µM was 30%.

What about the “Serum, % of control” value [3] of the same compound?
The value was 79 % of control.

What about the “Stomach Contents, % of control” value [3] of the same compound?
Its value is 223 % of control.
